Assay in all cases: cells
What all share (assay type): functional, cell-based, Homo sapiens

One experiment relates to HCC1599. The conditions noted are these: Homo sapiens, HCC1599.
Another experiment relates to IST-SL2. The conditions noted are these: Homo sapiens, IST-SL2.
The test system of the next experiment is LC-1F. The conditions noted are these: Homo sapiens, LC-1F.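 Note: growth inhibition of human LC-1F cells, read out with a cell viability assay.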
The test system of another experiment is NALM-6. To be noted: Homo sapiens, NALM-6.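 Note: growth inhibition of NALM-6 cells, read out with a cell viability assay.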
In a further experiment the test system is NCI-H2196. The conditions noted are these: Homo sapiens, NCI-H2196.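 Note: cell viability assay used as the readout of growth inhibition in NCI-H2196 cells.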
A further experiment concerns NCI-H2227. The conditions noted are these: Homo sapiens, NCI-H2227.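 Note: growth inhibition of the human cell line, read out with a cell viability assay.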
Another experiment has as its system NCI-H524. The conditions noted are these: Homo sapiens, NCI-H524.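 Note: growth inhibition of human NCI-H524 cells, read out through a cell viability assay.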
The subject of the next experiment is RPMI-6666. To be noted: Homo sapiens, RPMI-6666.
The next experiment relates to BL-41. To be noted: Homo sapiens, BL-41.
The next experiment deals with CA46. To be noted: Homo sapiens, CA46.
In the next experiment the test system is TE-15. The conditions noted are these: Homo sapiens, TE-15.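 Note: cell viability readout of growth inhibition in TE-15 cells.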
The next experiment relates to WSU-NHL. To be noted: Homo sapiens, WSU-NHL.
For another experiment, the system named is COLO-741. The conditions noted are these: Homo sapiens, COLO-741.
The next experiment relates to CaR-1. The conditions noted are these: Homo sapiens, CaR-1.
A further experiment relates to DOK. To be noted: Homo sapiens, DOK.
Another experiment deals with DoTc2-4510. The conditions noted are these: Homo sapiens, DoTc2-4510.
The test system of a further experiment is EGI-1. The conditions noted are these: Homo sapiens, EGI-1.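 Note: cell viability readout used to gauge growth inhibition of EGI-1 cells.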
The next experiment deals with FTC-133. The conditions noted are these: Homo sapiens, FTC-133.
A further experiment has as its system HOP-92. To be noted: Homo sapiens, HOP-92.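 Note: cell viability readout, with IC50 reflecting inhibition of HOP-92 cell growth.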
In another experiment the test system is Huh-7. The conditions noted are these: Homo sapiens, Huh-7.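 Note: HuH-7 cell growth inhibition, read out with a cell viability assay.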
In another experiment the test system is KU-19-19. To be noted: Homo sapiens, KU-19-19.
A further experiment deals with KYSE-270. To be noted: Homo sapiens, KYSE-270.
A further experiment concerns LCLC-97TM1. The conditions noted are these: Homo sapiens, LCLC-97TM1.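 Note: cell viability assay measuring growth inhibition of human LCLC-97TM1 cells.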
The test system of the next experiment is MDA-MB-231. The conditions noted are these: Homo sapiens, MDA-MB-231.
In the next experiment the test system is MDA-MB-415. To be noted: Homo sapiens, MDA-MB-415.
The next experiment has as its system MFE-280. To be noted: Homo sapiens, MFE-280.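 Note: growth inhibition of MFE-280 cells, determined with a cell viability readout.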
For the next experiment, the system named is NCI-H1623. The conditions noted are these: Homo sapiens, NCI-H1623.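 Note: cell viability assay used as the read-out for growth inhibition of NCI-H1623 cells.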
In a further experiment the test system is NCI-H1755. To be noted: Homo sapiens, NCI-H1755.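 Note: cell viability readout used to measure growth inhibition of NCI-H1755 cells.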
A further experiment relates to NCI-H1993. The conditions noted are these: Homo sapiens, NCI-H1993.
The subject of a further experiment is NCI-H2030. The conditions noted are these: Homo sapiens, NCI-H2030.
For a further experiment, the system named is NCI-H441. The conditions noted are these: Homo sapiens, NCI-H441.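 Note: growth inhibition of NCI-H441 cells, read out with a cell viability assay.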
Another experiment has as its system OAW-42. To be noted: Homo sapiens, OAW-42.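 Note: growth inhibition of OAW-42 cells, read out with a cell viability assay.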
In another experiment the test system is OE33. The conditions noted are these: Homo sapiens, OE33.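 Note: growth inhibition of human OE33 cells, measured by a cell viability assay.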
Another experiment concerns S-117. To be noted: Homo sapiens, S-117.
The test system of the next experiment is SK-MES-1. The conditions noted are these: Homo sapiens, SK-MES-1.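 Note: growth inhibition of human SK-MES-1 cells, read out with a cell viability assay.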
In another experiment the test system is SW13. The conditions noted are these: Homo sapiens, SW13.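 Note: IC50 is inhibition of SW13 cell growth, read out with a cell viability assay.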
A further experiment concerns SAOS-2. To be noted: Homo sapiens, SAOS-2.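 Note: growth inhibition of human Saos-2 cells determined by a cell viability assay.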
The next experiment concerns 8305C. The conditions noted are these: Homo sapiens, 8305C.
Another experiment concerns A2058. To be noted: Homo sapiens, A2058.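 Note: reduction of A2058 cell growth, read out with a viability assay.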
The test system of the next experiment is BFTC-905. The conditions noted are these: Homo sapiens, BFTC-905.
The next experiment has as its system BPH-1. To be noted: Homo sapiens, BPH-1.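 Note: cell viability assay measuring growth inhibition of human BPH-1 cells.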
For a further experiment, the system named is BT-20. The conditions noted are these: Homo sapiens, BT-20.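 Note: cell viability assay measuring suppression of growth in human BT-20 cells.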
The subject of another experiment is TYK-nu. To be noted: Homo sapiens, TYK-nu.
In the next experiment the test system is COLO-679. To be noted: Homo sapiens, COLO-679.
In a further experiment the test system is NCI-H1573. To be noted: Homo sapiens, NCI-H1573.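 Note: growth inhibition of NCI-H1573 cells, read out with a cell viability assay.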

Description for 8305C: SANGER: Inhibition of human 8305C cell growth in a cell viability assay.
Description for A2058: SANGER: Inhibition of human A2058 cell growth in a cell viability assay.
Description for BFTC-905: SANGER: Inhibition of human BFTC-905 cell growth in a cell viability assay.
Description for BL-41: SANGER: Inhibition of human BL-41 cell growth in a cell viability assay.
Description for BPH-1: SANGER: Inhibition of human BPH-1 cell growth in a cell viability assay.
Description for BT-20: SANGER: Inhibition of human BT-20 cell growth in a cell viability assay.
Description for CA46: SANGER: Inhibition of human CA46 cell growth in a cell viability assay.
Description for COLO-679: SANGER: Inhibition of human COLO-679 cell growth in a cell viability assay.
Description for COLO-741: SANGER: Inhibition of human COLO-741 cell growth in a cell viability assay.
Description for CaR-1: SANGER: Inhibition of human CaR-1 cell growth in a cell viability assay.
Description for DOK: SANGER: Inhibition of human DOK cell growth in a cell viability assay.
Description for EGI-1: SANGER: Inhibition of human EGI-1 cell growth in a cell viability assay.
Description for HCC1599: SANGER: Inhibition of human HCC1599 cell growth in a cell viability assay.
Description for HOP-92: SANGER: Inhibition of human HOP-92 cell growth in a cell viability assay.
Description for Huh-7: SANGER: Inhibition of human HuH-7 cell growth in a cell viability assay.
Description for IST-SL2: SANGER: Inhibition of human IST-SL2 cell growth in a cell viability assay.
Description for KU-19-19: SANGER: Inhibition of human KU-19-19 cell growth in a cell viability assay.
Description for KYSE-270: SANGER: Inhibition of human KYSE-270 cell growth in a cell viability assay.
Description for LC-1F: SANGER: Inhibition of human LC-1F cell growth in a cell viability assay.
Description for LCLC-97TM1: SANGER: Inhibition of human LCLC-97TM1 cell growth in a cell viability assay.
Description for MDA-MB-231: SANGER: Inhibition of human MDA-MB-231 cell growth in a cell viability assay.
Description for MFE-280: SANGER: Inhibition of human MFE-280 cell growth in a cell viability assay.
Description for NALM-6: SANGER: Inhibition of human NALM-6 cell growth in a cell viability assay.
Description for NCI-H1573: SANGER: Inhibition of human NCI-H1573 cell growth in a cell viability assay.
Description for NCI-H1623: SANGER: Inhibition of human NCI-H1623 cell growth in a cell viability assay.
Description for NCI-H1755: SANGER: Inhibition of human NCI-H1755 cell growth in a cell viability assay.
Description for NCI-H1993: SANGER: Inhibition of human NCI-H1993 cell growth in a cell viability assay.
Description for NCI-H2030: SANGER: Inhibition of human NCI-H2030 cell growth in a cell viability assay.
Description for NCI-H2196: SANGER: Inhibition of human NCI-H2196 cell growth in a cell viability assay.
Description for NCI-H2227: SANGER: Inhibition of human NCI-H2227 cell growth in a cell viability assay.
Description for NCI-H441: SANGER: Inhibition of human NCI-H441 cell growth in a cell viability assay.
Description for NCI-H524: SANGER: Inhibition of human NCI-H524 cell growth in a cell viability assay.
Description for OAW-42: SANGER: Inhibition of human OAW-42 cell growth in a cell viability assay.
Description for OE33: SANGER: Inhibition of human OE33 cell growth in a cell viability assay.
Description for RPMI-6666: SANGER: Inhibition of human RPMI-6666 cell growth in a cell viability assay.
Description for S-117: SANGER: Inhibition of human S-117 cell growth in a cell viability assay.
Description for SAOS-2: SANGER: Inhibition of human Saos-2 cell growth in a cell viability assay.
Description for SK-MES-1: SANGER: Inhibition of human SK-MES-1 cell growth in a cell viability assay.
Description for SW13: SANGER: Inhibition of human SW13 cell growth in a cell viability assay.
Description for TE-15: SANGER: Inhibition of human TE-15 cell growth in a cell viability assay.
Description for TYK-nu: SANGER: Inhibition of human TYK-nu cell growth in a cell viability assay.
Description for WSU-NHL: SANGER: Inhibition of human WSU-NHL cell growth in a cell viability assay.

One may read the IC50 as the midpoint of a concentration-inhibition curve. Read a low IC50 as greater potency in that assay. For `CC[C@H](CO)Nc1nc(NCc2ccccc2)c2ncn(C(C)C)c2n1` [SELICICLIB], the IC50 in the experiment on HCC1599 is 14600 nM; with IST-SL2, greater than 16000 nM; in the experiment with LC-1F it was greater than 16000 nM; with NALM-6, greater than 16000 nM; in the experiment on NCI-H2196 it was greater than 16000 nM; with NCI-H2227, greater than 16000 nM. The IC50 in the experiment on NCI-H524 is greater than 16000 nM; in the experiment with RPMI-6666 it was 13900 nM; in the experiment on BL-41, greater than 16000 nM; in the experiment with CA46 it was greater than 16000 nM; with TE-15 it was greater than 16000 nM; in the experiment with WSU-NHL, greater than 16000 nM.
As to `N#Cc1c(O)c2c(-c3ccc(-c4ccccc4O)cc3)csc2[nH]c1=O`, the IC50 with COLO-741, in the experiment with CaR-1, in the experiment on DOK, in the experiment with DoTc2-4510, in the experiment on EGI-1 and in the experiment with FTC-133 was greater than 1020 nM each time. Also, the IC50 in the experiment with HCC1599 was 278 nM; with HOP-92, greater than 1020 nM; in the experiment with Huh-7, greater than 1020 nM; in the experiment on IST-SL2, greater than 1020 nM; in the experiment on KU-19-19, greater than 1020 nM; with KYSE-270, greater than 1020 nM. In addition, the concentration for half-maximal inhibition (IC50) is greater than 1020 nM with LC-1F; greater than 1020 nM with LCLC-97TM1; greater than 1020 nM in the experiment on MDA-MB-231; greater than 1020 nM with MDA-MB-415; greater than 1020 nM in the experiment with MFE-280; 31.7 nM in the experiment with NALM-6. Also, the IC50 in the experiment with NCI-H1623 is greater than 1020 nM; with NCI-H1755, greater than 1020 nM; with NCI-H1993, greater than 1020 nM; in the experiment on NCI-H2030 it was greater than 1020 nM; in the experiment with NCI-H2196, 248 nM; with NCI-H2227 it was greater than 1020 nM. Besides, the IC50 in the experiment with NCI-H441 is greater than 1020 nM; in the experiment with NCI-H524, greater than 1020 nM; with OAW-42 it was greater than 1020 nM; in the experiment on OE33 it was greater than 1020 nM; with RPMI-6666, 68 nM; with S-117, greater than 1020 nM. The IC50 in the experiment on SK-MES-1, with SW13, in the experiment on SAOS-2, in the experiment on 8305C, in the experiment on A2058 and in the experiment with BFTC-905 was greater than 1020 nM throughout. Moreover, the IC50 was 189 nM in the experiment on BL-41; greater than 1020 nM in the experiment on BPH-1; greater than 1020 nM in the experiment on BT-20; 196 nM in the experiment on CA46; greater than 1020 nM in the experiment with TE-15; greater than 1020 nM in the experiment with TYK-nu. Besides, the IC50 is 297 nM in the experiment with WSU-NHL and greater than 1020 nM with COLO-679.
As for `C#Cc1cccc(Nc2ncnc3cc(OCCOC)c(OCCOC)cc23)c1` [ERLOTINIB], the IC50 was greater than 2000 nM with HCC1599; greater than 2000 nM in the experiment on IST-SL2; 606 nM in the experiment with LC-1F; greater than 2000 nM with NCI-H2196; greater than 2000 nM in the experiment with NCI-H2227; greater than 2000 nM with NCI-H524. Also, the IC50 in the experiment on RPMI-6666, with BL-41, in the experiment on CA46, in the experiment with TE-15 and in the experiment on WSU-NHL was greater than 2000 nM throughout.
As to `C=C(c1ccc(C(=O)O)cc1)c1cc2c(cc1C)C(C)(C)CCC2(C)C` [BEXAROTENE], the IC50 in the experiment with COLO-741, in the experiment on CaR-1, in the experiment on DOK, with DoTc2-4510, with EGI-1 and in the experiment with FTC-133 was greater than 8000 nM each time. Moreover, the IC50 with HCC1599, in the experiment on HOP-92, in the experiment with Huh-7, in the experiment with IST-SL2, with KU-19-19 and in the experiment on KYSE-270 was greater than 8000 nM each time. The IC50 in the experiment with LC-1F, in the experiment with LCLC-97TM1, in the experiment with MDA-MB-231, in the experiment on MDA-MB-415, with MFE-280 and in the experiment on NALM-6 was greater than 8000 nM in each case. In addition, the IC50 with NCI-H1573, in the experiment on NCI-H1623, with NCI-H1755, in the experiment with NCI-H1993, in the experiment with NCI-H2030 and in the experiment on NCI-H2196 was greater than 8000 nM throughout. Also, the IC50 in the experiment with NCI-H2227, in the experiment on NCI-H441, in the experiment on NCI-H524, in the experiment with OAW-42, in the experiment with OE33 and in the experiment with RPMI-6666 was greater than 8000 nM in each case. Besides, the IC50 in the experiment with S-117, in the experiment with SK-MES-1, in the experiment on SW13, in the experiment on SAOS-2, in the experiment on 8305C and in the experiment with A2058 was greater than 8000 nM throughout. Also, the IC50 with BFTC-905, in the experiment on BL-41, with BPH-1, in the experiment on BT-20, in the experiment on CA46 and with TE-15 was greater than 8000 nM each time. The figures for the IC50 in the experiment with TYK-nu, in the experiment on WSU-NHL and in the experiment on COLO-679 were 7110 nM, greater than 8000 nM and greater than 8000 nM, respectively.
With `N[C@@H](CSC(c1ccccc1)(c1ccccc1)c1ccccc1)C(=O)O` [S-TRITYL-L-CYSTEINE], the IC50 in the experiment with HCC1599 was 1230 nM; in the experiment on IST-SL2 it was 2260 nM; with LC-1F, 3490 nM; in the experiment with NALM-6, 676 nM; in the experiment with NCI-H2196 it was greater than 5120 nM; in the experiment on NCI-H524 it was 1030 nM. Moreover, the IC50 is greater than 5120 nM with RPMI-6666; 1640 nM in the experiment with BL-41; greater than 5120 nM in the experiment on CA46; 1020 nM with TE-15; greater than 5120 nM with WSU-NHL.
`Cc1ccc(-c2c(C(=O)CCl)n(CCCO)c3ncnc(N)c23)cc1`: the IC50 in the experiment with HCC1599 was 2170 nM; in the experiment with IST-SL2, greater than 4000 nM; in the experiment with LC-1F, greater than 4000 nM; in the experiment on NALM-6 it was greater than 4000 nM; in the experiment on NCI-H2196, greater than 4000 nM; with NCI-H524 it was greater than 4000 nM. In addition, the IC50 is 2330 nM in the experiment with RPMI-6666; greater than 4000 nM in the experiment with BL-41; greater than 4000 nM with CA46; 1820 nM with TE-15; greater than 4000 nM in the experiment with WSU-NHL.
On to `CCN(CC)CCNC(=O)c1c(C)[nH]c(/C=C2\C(=O)Nc3ccc(F)cc32)c1C` [SUNITINIB], for which the IC50 is greater than 8000 nM with HCC1599; 6130 nM in the experiment with IST-SL2; greater than 8000 nM in the experiment on LC-1F; 2900 nM in the experiment with NALM-6; greater than 8000 nM with NCI-H2196; greater than 8000 nM in the experiment on NCI-H524. The IC50 with RPMI-6666 is 3540 nM; in the experiment with BL-41 it was 2910 nM; with CA46, 7580 nM; with TE-15, 508 nM; with WSU-NHL it was greater than 8000 nM.
Consider `OCCCNc1cc(-c2ccnc(Nc3cccc(Cl)c3)n2)ccn1`, for which the IC50 was 43.9 nM with HCC1599; 24.9 nM with IST-SL2; 117 nM in the experiment on LC-1F; 46.8 nM in the experiment on NALM-6; 112 nM in the experiment on NCI-H2196; greater than 256 nM in the experiment with NCI-H524. The IC50 in the experiment with RPMI-6666 was 50.4 nM; in the experiment on BL-41 it was 33.6 nM; with CA46, greater than 256 nM; in the experiment on TE-15, 39.4 nM; in the experiment on WSU-NHL it was greater than 256 nM.

For the origin of these results see ChEMBL document CHEMBL1201861, “Genomics of Drug Sensitity in Cancer screening data, Wellcome Trust Sanger Institute”.
